Source: BindingDB's records for doi:10.7270/Q2MC8XP5 (Burnham Center For Chemical Genomics, 2013)

What follows are compounds tested against Protein artemis (Homo sapiens, UniProt Q96SD1) (assay: Artemis endonuclease inhibitor potency, dose response, biochemical, fluorescence intensity (AID 720701)).
Chain of Protein artemis (Q96SD1 whole entry): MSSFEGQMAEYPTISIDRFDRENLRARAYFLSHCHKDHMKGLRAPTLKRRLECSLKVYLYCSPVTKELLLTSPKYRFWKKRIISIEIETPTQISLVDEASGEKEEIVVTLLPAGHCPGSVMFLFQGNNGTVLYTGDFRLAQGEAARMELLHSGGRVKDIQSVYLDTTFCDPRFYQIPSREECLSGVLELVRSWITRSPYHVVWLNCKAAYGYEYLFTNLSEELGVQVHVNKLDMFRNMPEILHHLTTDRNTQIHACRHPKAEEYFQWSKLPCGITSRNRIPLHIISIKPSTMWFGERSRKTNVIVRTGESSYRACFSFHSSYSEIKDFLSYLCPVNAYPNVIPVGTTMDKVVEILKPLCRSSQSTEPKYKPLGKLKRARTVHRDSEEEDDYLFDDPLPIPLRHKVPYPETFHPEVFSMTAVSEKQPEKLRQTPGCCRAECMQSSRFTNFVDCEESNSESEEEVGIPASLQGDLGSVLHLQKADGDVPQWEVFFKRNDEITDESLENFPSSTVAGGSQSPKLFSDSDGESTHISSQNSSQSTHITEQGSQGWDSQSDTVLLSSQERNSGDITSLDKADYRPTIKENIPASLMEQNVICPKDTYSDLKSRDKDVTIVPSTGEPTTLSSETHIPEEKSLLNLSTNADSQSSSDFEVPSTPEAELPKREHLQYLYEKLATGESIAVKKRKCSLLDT
`O=C1C=Cc2ccccc2/C1=C/NC12CN3CCN(CN(C3)C1)C2` [MLS000071484] was tested, and the IC50 was 3.64 µM.
With `O=c1c2ccccc2nc(N=NCc2c(O)ccc3ccccc23)n1O` [SMR000145705] the IC50 was 4.68 µM.
Work on `CC(N=O)c1ccccc1C(=O)O` (stereo unspecified) [SMR000038583] yielded an IC50 of 3.62 µM.
`C=CCN1C(=O)S/C(=C\c2ccc(N3CCOCC3)cc2C)C1=O` [(5Z)-5-[[2-methyl-4-(4-morpholinyl)phenyl]methylidene]-3-prop-2-enylthiazolidine-2,4-dione] was tested, and the IC50 was 1.5 µM.
`CCCCc1ccc(/C=C2\C(=O)ON=C2c2ccccc2)s1` [4-(5-Butyl-thiophen-2-ylmethylene)-3-phenyl-4H-isoxazol-5-one] showed an IC50 of 16.2 µM.
`COc1ccc(Nc2nc(N=NCc3ccccc3)nc(NCc3ccco3)n2)cc1` was tested, and the IC50 was 2.65 µM.
`CCN(CC)c1ccc(CN=Nc2nc3ccccc3[nH]2)c(O)c1` [MLS000541069] gave an IC50 of 15.5 µM.
For `CN1c2cccc3cccc(c23)C1N=O` (stereo unspecified) [1-Methyl-1H-benzo[cd]indol-2-one oxime], the IC50 was > 20 µM.
In the case of `CCCCOc1ccc(/C=C2/Sc3ccccc3C2=O)cc1` [2-(4-Butoxy-benzylidene)-benzo[b]thiophen-3-one], the IC50 is reported as > 20 µM.
In the case of `CCOc1ccc(-n2c(O)c(C=Nc3ccc(N4CCOCC4)cc3)c(=O)[nH]c2=O)cc1` [SMR000109118], the IC50 is reported as > 20 µM.
Compound `N#CC(C(=O)NCc1ccccc1)c1nc2ccccc2nc1N1CCCC1` (stereo unspecified) [2-cyano-N-(phenylmethyl)-2-(3-pyrrolidin-1-ylquinoxalin-2-yl)ethanamide] has an IC50 of 5 µM.
For `N#CC1C(=N)Oc2[nH]nc(-c3cccs3)c2C1c1ccoc1` (stereo unspecified) [6-amino-4-(furan-3-yl)-3-thiophen-2-yl-2,4-dihydropyrano[2,3-c]pyrazole-5-carbonitrile], the IC50 was > 20 µM.
`Cc1cccc(CN2C(=O)N/C(=C/c3ccc(C)s3)C2=O)c1` gave an IC50 of 16.4 µM.
For `NS(=O)(=O)c1ccc2c(c1)C1C=CCC1C(C1CC=CCC1)N2` (stereo unspecified) [MLS000530517], the IC50 was 9.58 µM.
Compound `COc1ccc(O)c(CN=Nc2nc(Nc3ccccc3)nc(-n3nc(C)cc3C)n2)c1` [(6E)-6-[[2-[4-(3,5-dimethylpyrazol-1-yl)-6-phenylazanyl-1,3,5-triazin-2-yl]hydrazinyl]methylidene]-4-methoxy-cyclohexa-2,4-dien-1-one] has an IC50 of 2.23 µM.
In the case of `CCCCCCCCCC(N=O)c1ccccn1` (stereo unspecified) [1-Pyridin-2-yl-decan-1-one oxime], the IC50 is reported as 11 µM.
